From patent publication US20230339856A1, “NOVEL PHARMACOLOGICAL CHAPERONE COMPOUNDS OF HUMAN ACID ALPHA-GLUCOSIDASE AND THE THERAPEUTIC USE THEREOF” (UNIVERSITÉ GRENOBLE ALPES, priority 2020, published 2023)
Read-outs that look alike come from different tables or passages of the source.

How the values were obtained:
[1] = target: T1, recombinant human acid α-glucosidase (rhGAA) (Homo sapiens (Human), UniProt P10253); experiment: Inhibition of rhGAA determined by Fluopol-ABPP; assay type: binding; conditions: McIlvaine buffer pH 5.0, 37° C., TAMRA probe
From the text: The inhibiting activity on recombinant human acid α-glucosidase (rhGAA) of the compounds is implemented using the Fluopol-ABPP method (Fluorescence Polarization Activity Based Protein Profiling) described in the publication of Lahav et al., 2017, J. Am. Chem. Soc. 139: 14192-14197. This technique, based on the competition between an inhibitor and a fluorescent probe capable of binding covalently to the active site of an enzyme, makes it possible to measure the affinity of this inhibitor for the active site of the rhGAA enzyme used for these experiments by the laboratory of Professors Herman S. Overkleeft and Johanes M. F. G. Aerts, Leiden Institute of Chemistry, Leiden University (NL), is the enzyme marketed under the name Myozyme®. […] The […] (TAMRA) fluorescent probe in solution (25 nM) in the buffer is next added to the mixture. After 4 hours, the samples are irradiated with a polarized light (λ=530 nm) and the fluorescence emitted (λ=580 nm) is measured by means of an Infinite® M1000Pro (Tecan) spectrofluorimeter. For each concentration of inhibitor, the percentage of inhibition of the enzyme is determined by the formula:
%Inhibition=[Fmeasured−Fcontrol1)/Fcontro2)×100
The IC50 values are calculated by a non-linear regression of the % inhibition as a function of the concentration [I] by means of the GraphPad Prism 6.0 software. The results are a mean of three identical experiments (triplicates).

[2] = target: recombinant human lysosomal β-glucocerebrosidase (GBA1) (Homo sapiens (Human), UniProt P04062, R534H); experiment: Inhibition of GBA1 (Cerezyme); assay type: biochemical; conditions: pH 5.2, 4-methyl-umbelliferone-β-D-glucopyranoside 3.0 mM, 30 minutes
Procedure: (§1) The selectivity of the compounds was evaluated in the laboratory of Professors Herman S. Overkleeft and Johanes M. F. G. Aerts, Leiden Institute of Chemistry, Leiden University (NL). The enzymes used for determining the selectivity of inhibition of the compounds with respect to various human enzymes are the α-glucosidase II of the endoplasmic reticulum (GANAB), recombinant human lysosomal β-glucocerebrosidase (GBA1), human non-lysosomal β-glucosylceramidase (GBA2) and β-glucosylceramide synthase (GCS). The inhibiting activity of the compounds on these various enzymes is determined as described in the publication by Artola et al., 2017, ACS Cent. Sci. 3: 784-793. The enzyme GBA1 sold under the name Cerezyme® and the enzyme rhGAA sold under the name Myozyme® are used. The human GANAB enzyme used for this study is that of fibroblasts of patients suffering from Pompe disease diagnosed as lacking active GAA and voluntary donors. These fibroblasts were cultivated on an HAMF12-DMEM medium (Sigma) supplemented by 10% (v/v) FCS (fetal calf serum). The GBA2 enzyme was over-expressed in HEK298T cells cultivated on a DMEM medium enriched with glucose (Gibco) supplemented by 10% NBS (newborn bovine serum) and 100 units/mL of penicillin/streptomycin (Gibco) and 5% CO2 at 37° C. The activity of the compounds on human β-glucosylceramide synthase (GCS) is evaluated in situ on cells of the RAW 264.7 type cultivated on an RPMI medium (Gibco) supplemented by 10% FCS, 1 mM of glutamax, 100 units/mL of penicillin/streptomycin (Gibco) and 5% CO2 at 37° C.

rhGAA = rhGAA (Homo sapiens (Human), UniProt P10253); experiment: Thermal stabilization of rhGAA by DSF (differential scanning fluorimetry); assay type: binding
Procedure: The stabilization of rhGAA in the presence of the compounds is determined in accordance with the method described in the publication of Niesen et al., 2007, Nat. Protoc. 2: 2212-2221. The rhGAA enzyme (2.5 μg, 0.1 mg/mL) is incubated in the absence and in the presence of each compound (at a concentration [I]=100 μM), of SYPRO® orange dye (Life Technologies), and of sodium phosphate buffer (25 mM) and of NaCI (150 mM), pH 7.4 or of sodium acetate buffer (25 mmol) and of NaCl (150 mM), pH 4.0. The thermal stability of the enzyme in these various conditions is evaluated by DSF (differential scanning fluorimetry) by varying the temperature by 1° C./min over an interval of 25 to 95° C., and measuring the fluorescence of the SYPRO® orange dye every minute by means of a Real-Time Cycler spectrofluorimeter (Biorad). The relative fluorescence is determined by comparing each fluorescence value measured with that of the maximum fluorescence value of the SYPRO® orange dye for each scan. The results are a mean of three identical experiments (triplicates).

[3] = target: α-glucosidase II of the endoplasmic reticulum (GANAB) (Homo sapiens (Human), UniProt Q14697); experiment: Inhibition of GANAB in lysates of fibroblasts of Pompe patients; assay type: biochemical; conditions: pH 7.0, 4-methyl-umbelliferone-α-D-glucopyranoside 2.4 mM, 2 hours
Procedure: as §1
(§2) These cell lysates are homogenized using a SilentCrusher grinder (Heidolph®), and then subjected to ultracentrifugation at 32,000 rpm for 30 minutes at 4° C. The total protein concentration is determined in accordance with the Bradford method (Bradford, 1976, Anal. Biochem. 72: 248-254), using a Bradford BioRad Quick Start® kit (Pierce) and BSA (Sigma). The lysates are next aliquoted and stored at −80° C. before use.

[4] = target: β-glucosylceramide synthase (GCS) (Mus musculus (Mouse), UniProt O88693); experiment: Inhibition of GCS in situ in RAW 264.7 cells; assay type: cell-based; conditions: pH 7.0, 1 μM NBD-ceramide
Procedure: as §1, §2
The residual activity of GCS in the presence of the compounds is determined after pre-incubation for 1 hour of the homogenates of RAW 264.7 cells with an inhibitor of GBA1, conduritol β-epoxide (Sigma), at a concentration of 300 μM.
The I50 values for the GCS enzyme are determined in situ in the cell culture medium at pH 7.0 using 1 μM of NBD-ceramide (N-[12-[(7-nitro-2-1,3-benzoxadiazol-4-yl)amino]dodecanoyl]-D-erythro-sphingosine) as substrate, as described in the aforementioned publication of Lahav et al.

[5] = target: T1, recombinant human acid α-glucosidase (rhGAA); experiment: Inhibition of rhGAA determined by measuring the residual activity in vitro; assay type: biochemical; conditions: sodium acetate buffer pH 4.0, 37° C.; for IC50: 4-nitrophenyl-α-D-glucopyranoside substrate
[6] = target: human non-lysosomal β-glucosylceramidase (GBA2) (Homo sapiens (Human), UniProt Q9HCG7); experiment: Inhibition of GBA2 in lysates of HEK298T cells over-expressing GBA2; assay type: biochemical; conditions: pH 5.8, 4-methyl-umbelliferone-β-D-glucopyranoside 3.0 mM, 1 hour
Procedure: as §1, §2
The residual activity of GBA2 in the presence of the compounds is determined after pre-incubation for 30 minutes of the homogenates of HEK298T cells over-expressing GBA2 with an inhibitor of GBA1, conduritol β-epoxide (Sigma), at a concentration of 1 mM.

[7] = [I]=100 μM, pH 4.0, read-out: rhGAA ΔTm at pH 4.0
[8] = [I]=100 μM, pH 7.4, read-out: rhGAA ΔTm at pH 7.4

Sequence of β-glucosylceramide synthase (GCS) (O88693 whole entry): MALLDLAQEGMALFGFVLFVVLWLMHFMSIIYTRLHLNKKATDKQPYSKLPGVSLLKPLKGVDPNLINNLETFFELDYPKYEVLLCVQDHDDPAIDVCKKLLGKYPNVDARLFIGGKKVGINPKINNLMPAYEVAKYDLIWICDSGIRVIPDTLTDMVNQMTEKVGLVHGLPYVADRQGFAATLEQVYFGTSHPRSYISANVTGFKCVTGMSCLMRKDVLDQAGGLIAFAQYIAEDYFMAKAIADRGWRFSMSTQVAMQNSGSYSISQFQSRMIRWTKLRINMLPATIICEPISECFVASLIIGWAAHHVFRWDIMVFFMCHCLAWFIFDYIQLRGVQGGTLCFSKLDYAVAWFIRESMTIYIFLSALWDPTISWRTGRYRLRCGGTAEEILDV
Sequence of human non-lysosomal β-glucosylceramidase (GBA2) (Q9HCG7 whole entry): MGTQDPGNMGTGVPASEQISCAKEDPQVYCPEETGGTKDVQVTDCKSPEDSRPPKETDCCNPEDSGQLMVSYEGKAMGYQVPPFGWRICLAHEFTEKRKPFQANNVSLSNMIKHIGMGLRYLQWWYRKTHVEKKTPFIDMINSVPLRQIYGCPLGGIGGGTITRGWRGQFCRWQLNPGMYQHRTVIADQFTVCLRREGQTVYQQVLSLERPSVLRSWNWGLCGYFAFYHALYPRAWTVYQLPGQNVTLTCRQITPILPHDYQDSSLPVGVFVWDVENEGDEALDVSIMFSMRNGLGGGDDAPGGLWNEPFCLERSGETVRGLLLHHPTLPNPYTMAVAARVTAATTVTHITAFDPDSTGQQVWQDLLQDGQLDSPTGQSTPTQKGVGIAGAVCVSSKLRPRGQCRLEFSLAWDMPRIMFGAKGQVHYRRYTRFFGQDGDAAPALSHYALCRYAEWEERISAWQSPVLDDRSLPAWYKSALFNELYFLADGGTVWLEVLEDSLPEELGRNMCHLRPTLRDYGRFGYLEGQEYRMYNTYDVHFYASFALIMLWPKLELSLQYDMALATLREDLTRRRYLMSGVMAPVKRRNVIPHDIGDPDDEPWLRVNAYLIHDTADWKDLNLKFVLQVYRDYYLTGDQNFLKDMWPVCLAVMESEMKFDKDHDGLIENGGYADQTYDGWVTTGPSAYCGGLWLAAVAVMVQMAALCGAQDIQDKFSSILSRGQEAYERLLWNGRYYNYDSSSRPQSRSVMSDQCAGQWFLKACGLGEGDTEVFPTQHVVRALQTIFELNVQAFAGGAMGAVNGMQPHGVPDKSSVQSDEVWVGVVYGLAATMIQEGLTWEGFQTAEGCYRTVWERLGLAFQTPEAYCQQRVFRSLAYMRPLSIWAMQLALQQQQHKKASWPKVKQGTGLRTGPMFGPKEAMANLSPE
Sequence of α-glucosidase II of the endoplasmic reticulum (GANAB) (Q14697 29-944): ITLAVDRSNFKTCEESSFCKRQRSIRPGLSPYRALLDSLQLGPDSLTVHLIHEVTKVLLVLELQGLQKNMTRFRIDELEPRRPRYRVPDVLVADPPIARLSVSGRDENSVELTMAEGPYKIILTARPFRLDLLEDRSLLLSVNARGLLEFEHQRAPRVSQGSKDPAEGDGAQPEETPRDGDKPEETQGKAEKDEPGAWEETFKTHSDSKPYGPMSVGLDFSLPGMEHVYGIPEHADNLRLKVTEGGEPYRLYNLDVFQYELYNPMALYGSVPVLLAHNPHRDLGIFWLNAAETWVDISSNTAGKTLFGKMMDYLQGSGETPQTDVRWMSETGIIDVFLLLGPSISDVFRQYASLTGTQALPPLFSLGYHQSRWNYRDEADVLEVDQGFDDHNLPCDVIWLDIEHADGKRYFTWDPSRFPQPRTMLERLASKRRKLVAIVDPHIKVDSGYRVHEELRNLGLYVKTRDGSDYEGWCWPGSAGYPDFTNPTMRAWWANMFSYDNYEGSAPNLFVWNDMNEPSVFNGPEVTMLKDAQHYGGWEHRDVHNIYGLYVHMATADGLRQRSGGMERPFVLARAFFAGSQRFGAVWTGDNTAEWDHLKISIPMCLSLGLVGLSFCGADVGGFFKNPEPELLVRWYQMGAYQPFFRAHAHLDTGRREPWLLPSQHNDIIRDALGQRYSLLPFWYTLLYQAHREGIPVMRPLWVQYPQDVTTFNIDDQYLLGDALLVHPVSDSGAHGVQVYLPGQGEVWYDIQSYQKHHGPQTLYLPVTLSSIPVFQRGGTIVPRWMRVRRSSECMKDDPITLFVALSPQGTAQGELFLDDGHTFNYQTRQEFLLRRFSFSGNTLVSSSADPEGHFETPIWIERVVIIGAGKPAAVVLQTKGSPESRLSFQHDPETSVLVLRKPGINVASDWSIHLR
Sequence of α-glucosidase II of the endoplasmic reticulum (GANAB) (P14314 15-528 partner): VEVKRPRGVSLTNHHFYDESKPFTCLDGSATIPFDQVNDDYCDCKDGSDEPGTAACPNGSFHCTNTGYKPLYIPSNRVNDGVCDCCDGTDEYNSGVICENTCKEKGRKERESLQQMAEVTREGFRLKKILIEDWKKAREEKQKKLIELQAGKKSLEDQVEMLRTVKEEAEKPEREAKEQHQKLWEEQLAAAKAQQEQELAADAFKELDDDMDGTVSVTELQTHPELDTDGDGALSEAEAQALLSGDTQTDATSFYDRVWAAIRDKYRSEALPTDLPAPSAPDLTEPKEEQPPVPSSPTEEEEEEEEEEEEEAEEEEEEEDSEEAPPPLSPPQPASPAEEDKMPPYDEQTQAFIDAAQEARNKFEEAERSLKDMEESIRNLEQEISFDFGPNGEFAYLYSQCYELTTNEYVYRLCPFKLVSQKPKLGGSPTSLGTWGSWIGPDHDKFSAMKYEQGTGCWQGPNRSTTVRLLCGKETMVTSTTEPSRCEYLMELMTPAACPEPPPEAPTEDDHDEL
Sequence of recombinant human lysosomal β-glucocerebrosidase (GBA1) (P04062 40-536 R534H limits assumed): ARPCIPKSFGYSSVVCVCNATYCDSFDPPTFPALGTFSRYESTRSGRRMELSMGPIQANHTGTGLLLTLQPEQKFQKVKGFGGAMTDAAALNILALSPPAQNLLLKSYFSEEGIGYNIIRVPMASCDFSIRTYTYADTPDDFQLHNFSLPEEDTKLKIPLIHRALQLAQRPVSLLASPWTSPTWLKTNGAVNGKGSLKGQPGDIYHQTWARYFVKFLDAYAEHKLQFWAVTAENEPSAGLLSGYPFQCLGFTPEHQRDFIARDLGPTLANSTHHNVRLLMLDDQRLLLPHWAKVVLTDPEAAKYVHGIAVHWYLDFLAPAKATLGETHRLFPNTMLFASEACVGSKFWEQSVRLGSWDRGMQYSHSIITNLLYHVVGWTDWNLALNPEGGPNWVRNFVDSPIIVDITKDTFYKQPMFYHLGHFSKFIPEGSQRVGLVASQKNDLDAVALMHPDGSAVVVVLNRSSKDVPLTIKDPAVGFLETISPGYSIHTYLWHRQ

IC50 [2]	ΔTm at 100 µM (rhGAA; [8])	IC50 [3]	IC50 [4]	IC50 [5]	IC50 [6]	Ki [5]	SMILES	IC50 [1]	other results
							OC[C@]12[C@@H](O)[C@H](O)[C@@H](O)CN1[C@@H]2C(O)c1ccccc1 (stereo in doubt) [Compound (IIm), (3S,4R,5R,6R,7S)-7-((S)-hydroxy(phenyl)methyl)-6-(hydroxymethyl)-1-azabicyclo[4.1.0]heptane-3,4,5-triol]	45 µM	
> 1000 µM	12.7 °C	> 100 µM	> 50 µM	341 µM	> 1000 µM		CC[C@]1(CO)NC[C@H](O)[C@@H](O)[C@@H]1O [(IIa), (2R,3R,4R,5S)-2-ethyl-2-(hydroxymethyl)piperidine-3,4,5-triol]	0.42 µM	ΔTm at 100 µM (rhGAA; [7]): 8.1 °C
> 1000 µM	11.5 °C	> 100 µM	> 50 µM	104 µM	> 1000 µM	13 µM	CCC[C@]1(CO)NC[C@H](O)[C@@H](O)[C@@H]1O [(IIb), (2R,3R,4R,5S)-2-(hydroxymethyl)-2-propylpiperidine-3,4,5-triol]	0.39 µM	ΔTm at 100 µM (rhGAA; [7]): 7.8 °C
> 1000 µM	13 °C	> 100 µM	> 50 µM	37.2 µM	> 1000 µM	7.6 µM	OC[C@@]1(CCc2ccccc2)NC[C@H](O)[C@@H](O)[C@@H]1O [(IIc), (2R,3R,4R,5S)-2-(hydroxymethyl)-2-phenethylpiperidine-3,4,5-triol]	0.22 µM	ΔTm at 100 µM (rhGAA; [7]): 11.8 °C
> 1000 µM	10.7 °C	> 100 µM	> 50 µM	182 µM	> 1000 µM	18.9 µM	OCC[C@]1(CO)NC[C@H](O)[C@@H](O)[C@@H]1O [(IId), (2R,3R,4R,5S)-2-(2-hydroxyethyl)-2-(hydroxymethyl)piperidine-3,4,5-triol]	0.15 µM	ΔTm at 100 µM (rhGAA; [7]): 9.4 °C
	6.2 °C			49.1 µM		6.4 µM	CCCCC[C@]1(CO)NC[C@H](O)[C@@H](O)[C@@H]1O [Compound (IIb1), (2R,3R,4R,5S)-2-(hydroxymethyl)-2-pentylpiperidine-3,4,5-triol]		
	16.8 °C						OC[C@@]1(CCC2CCCCC2)NC[C@H](O)[C@@H](O)[C@@H]1O [Compound (IIb7), (2R,3R,4R,5S)-2-(2-cyclohexylethyl)-2-(hydroxymethyl)piperidine-3,4,5-triol]		
	15 °C			32.9 µM		13 µM	OC[C@@]1(CCCc2ccccc2)NC[C@H](O)[C@@H](O)[C@@H]1O [Compound (IIc1), (2R,3R,4R,5S)-2-(hydroxymethyl)-2-(3-phenylpropyl)piperidine-3,4,5-triol]		
							OC[C@@]12CCN1C[C@H](O)[C@@H](O)[C@@H]2O [Compound (IIh), (3S,4R,5R,6R)-6-(hydroxymethyl)-1-azabicyclo[4.2.0]octane-3,4,5-triol]	9.7 µM	
							OC[C@@H](O)[C@H]1N2C[C@H](O)[C@@H](O)[C@H](O)[C@]12CO (stereo partly drawn) [Compound (IIj), (3S,4R,5R,6R,7S)-7-((S)-1,2-dihydroxyethyl)-6-(hydroxymethyl)-1-azabicyclo[4.1.0]heptane-3,4,5-triol]	15.2 µM	
							OC[C@H]1N2C[C@H](O)[C@@H](O)[C@H](O)[C@]12CO (stereo partly drawn) [Compound (IIk), (3S,4R,5R,6R,7S)-6,7-bis(hydroxymethyl)-1-azabicyclo[4.1.0]heptane-3,4,5-triol]	11.6 µM	
							OC[C@]12[C@@H](O)[C@H](O)[C@@H](O)CN1[C@@H]2[C@H](O)C1CCCCC1 (stereo partly drawn) [Compound (IIn), (3S,4R,5R,6R,7S)-7-((R)-cyclohexyl(hydroxy)methyl)-6-(hydroxymethyl)-1-azabicyclo[4.1.0]heptane-3,4,5-triol]	24.6 µM	

SMILES	IC50 [2]	ΔTm at 100 µM (rhGAA; [8])	IC50 [3]	IC50 [4]	IC50 [5]	IC50 [6]	Ki [5]	IC50 [1]	other results
OC[C@@]12CCCCN1C[C@H](O)[C@@H](O)[C@@H]2O [(IIf), (1R,2R,3S,9aR)-9a-(hydroxymethyl)octahydro-1H-quinolizine-1,2,3-triol]	> 1000 µM	11.8 °C	> 100 µM	> 50 µM	297 µM	> 1000 µM		0.87 µM	ΔTm at 100 µM (rhGAA; [7]): 6.4 °C
OC[C@@]12CCCN1C[C@H](O)[C@@H](O)[C@@H]2O [(IIg), (6S, 7R, 8R, 8aR)-8a-(hydroxymethyl)-octahydroindolizine-6,7,8-triol]	> 1000 µM		> 100 µM	> 50 µM	387 µM	> 1000 µM		0.46 µM	ΔTm at 100 µM (rhGAA; read-out: rhGAA ΔTm at pH 4.0): 6.7 °C; ΔTm at 100 µM (rhGAA; read-out: rhGAA ΔTm at pH 7.4): 14.4 °C
CCCCCCC[C@]1(CO)NC[C@H](O)[C@@H](O)[C@@H]1O [Compound (IIb3), (2R,3R,4R,5S)-2-heptyl-2-(hydroxymethyl)piperidine-3,4,5-triol]		16.9 °C			29.6 µM		10.8 µM		
OC[C@@]1(CCC23CC4CC(CC(C4)C2)C3)NC[C@H](O)[C@@H](O)[C@@H]1O [Compound (IIr)]					29.5 µM		20 µM		rhGAA ΔTm at pH 7.4 (rhGAA; [I]=100 μM, pH 7.4): 14.5 °C
C[Si](C)(C)CC[C@]1(CO)NC[C@H](O)[C@@H](O)[C@@H]1O [Compound (IIx1), (2R,3R,4R,5S)-2-(hydroxymethyl)-2-(2-(trimethylsilyl)ethyl)piperidine-3,4,5-triol]		16.5 °C			40.3 µM				
